Data on 5 compounds can be found in EP0974353A2, “The use of homocysteine derivatives for the preparation of medicaments inhibiting bacterial adhesiveness” (EDMOND PHARMA S.R.L., priority 1998, dated 2000).

Assay [1] deals with bacterial adhesiveness. The assay can be described thus: Inhibition of bacterial adhesiveness, bacterium not specified. The following applies: bacterium and concentration not given; general statement. The format is cell-based. As for the experimental part: (§1) Said procedures consist in incubating the active substance with bacteria in order to interfere with their adhesiveness mechanism and subsequently adding mucosa cells, observing the obtained result.
(§2) Human epithelial cells were collected from buccal and palatal mucosa of healthy volunteers by a sterile spatula, subsequently immersed in 2 ml of physiological saline buffered with phosphate buffer, combining then the suspensions from different volunteers.
(§3) Tests were carried out with three different E. coli strains, ATCC 25922 strain and two others isolated from human urinary infections, as well as with three S. aureus strains, ATCC 25923 strain and two others from human respiratory infections, using concentrations of 1.25, 2.5, 5 and 10 mcg/ ml for each tested compound.

Assay [2] relates to S. aureus strains, ATCC 25923 strain and two others from human respiratory infections. The experiment in a line: Inhibition of bacterial adhesiveness to human buccal/palatal epithelial cells, S. aureus. It is filed as cell-based. As for the experimental part: as §1, §2, §3
The subject of assay [3] is E. coli strains, ATCC 25922 strain and two others isolated from human urinary infections. The experiment in a line: Inhibition of bacterial adhesiveness to human buccal/palatal epithelial cells, E. coli. It is filed as cell-based. The following applies: three E. coli strains; for inhibitory activity on adhesiveness: even at the maximum tested concentration (10 mcg/ml). As for the experimental part: as §1, §2, §3

The conditions of assay [4]: rank among the erdosteine metabolites; from R. Scuri et al.; cited from earlier work.

Entries after “also recorded” stand apart in the source; their conditions may differ.

Regarding `CC(=O)N[C@@H](CS)C(=O)O` [N-acetylcysteine], the “inhibition of bacterial adhesiveness” value in assay [1] is “much less active, or even inactive”. Moreover, the “activity in reducing bacterial adhesiveness” value in assay [2] (incubation with S. aureus, concentration not stated (tested 1.25, 2.5, 5 and 10 mcg/ml)) was “no specific activity”. Also, the “inhibitory activity on adhesiveness” value in assay [3] was “no inhibitory activity”.
With `CC(=O)N[C@@H](CCS)C(=O)O` [N-acetylhomocysteine], the “inhibitory activity on adhesiveness” value in assay [3] was “no inhibitory activity”.
Regarding `O=C(O)CSCC(=O)NC(CCS)C(=O)O` (stereo not shown) [compound (A), N-(Thiodiglycoyl)homocysteine], the “inhibition of bacterial adhesiveness” value in assay [1] was “remarkable inhibitory activity”. Moreover, the “reduction of S. aureus adhesiveness to epithelial cells” value in assay [2] (at concentrations of 2.5 to 10 mcg/ml) was “significant reduction”. Further, the “inhibitory activity of bacterial adhesiveness” value in assay [3] (already at a concentration of 2.5 mcg/ml, compared with the control (bacteria with no tested compound)) is given as “significant inhibitory activity”. In addition, the mucolytic activity result in assay [4] is on record as “lowest mucolytic activity”.
For `O=C(O)CSCC(=O)NC1CCSC1=O` (stereo not shown) [erdosteine, N-(thiodiglycoyl)homocysteine gamma-thiolactone], the “inhibition of bacterial adhesiveness” value in assay [1] is “not inhibited in a statistically significant way; also recorded: almost devoid of such an activity”.
With `N[C@@H](CCS)C(=O)O` [homocysteine], the “inhibitory activity on adhesiveness, difference compared with the control test” value in assay [3] (concentration not stated (tested 1.25, 2.5, 5 and 10 mcg/ml)) is recorded as “some difference, which however was not statistically significant”.
